In US20070249590A1, “Substituted indolo[2,3-a]pyrrolo[3,4-c]carbazole compounds useful in treating kinase disorders” (priority 2005, published 2007):

biological target: T1, JAK3 (JH1 and JH2 domain) (Homo sapiens, UniProt P52333); experiment: JAK3 Kinase Assay (ELISA of peptide substrate phosphorylation); assay type: biochemical; conditions: purified JAK3 enzyme, 10 μM ATP, biotinylated peptide substrate, 1 hour at room temperature
T1 sequence (P52333 521-1111 limits assumed): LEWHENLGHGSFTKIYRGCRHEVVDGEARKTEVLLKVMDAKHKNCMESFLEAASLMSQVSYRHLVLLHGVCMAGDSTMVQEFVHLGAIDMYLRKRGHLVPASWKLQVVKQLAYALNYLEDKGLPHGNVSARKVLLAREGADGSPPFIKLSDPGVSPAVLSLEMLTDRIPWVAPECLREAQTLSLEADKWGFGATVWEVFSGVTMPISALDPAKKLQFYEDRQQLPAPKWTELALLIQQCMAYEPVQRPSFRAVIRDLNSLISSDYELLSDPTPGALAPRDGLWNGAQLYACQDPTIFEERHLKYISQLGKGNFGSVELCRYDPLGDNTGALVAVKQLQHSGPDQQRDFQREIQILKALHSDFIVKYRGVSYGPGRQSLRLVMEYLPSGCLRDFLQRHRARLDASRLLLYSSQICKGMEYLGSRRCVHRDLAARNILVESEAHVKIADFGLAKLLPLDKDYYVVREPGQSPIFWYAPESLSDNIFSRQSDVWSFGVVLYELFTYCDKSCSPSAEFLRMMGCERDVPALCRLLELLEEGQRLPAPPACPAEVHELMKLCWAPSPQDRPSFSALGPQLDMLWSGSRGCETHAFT
Method in brief: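 Sf21-baculovirus-expressed JAK3 (JH1+JH2), glutathione-bead purified, with biotinylated peptide substrate (in buffer containing 10 μM ATP) in HEPES pH 7.5/MgCl2/DTT, 1 h RT. Product was captured on Neutravidin, detected with HRP anti-phosphotyrosine (PY99)/TMB, OD 450/650 nm. Triplicate 16-point half-log series from 200 μM gave IC50; otherwise % inhibition at 1 μM.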

Row | IC50 | SMILES
1 | 159 nM | O=C1NC(=O)c2c1c1c3ccccc3n3c1c1c2c2ccccc2n1CC(OC(=O)N1CCN(C(=O)CN2CCCC2)CC1)C(O)C3 (stereo not drawn) [Cpd 95, 12,13-[2-({4-[(pyrrolidin-1-yl-methyl)carbonyl]piperazin-1-yl}carbonyloxy)-3-hydroxy-butan-1,4-yl]-12,13-dihydro-5,7-dioxo-6H-indolo[2,3-a]pyrrolo[3,4-c]carbazole]
2 | 22 nM | O=C1NCc2c1c1c3ccccc3n3c1c1c2c2ccccc2n1CC(CO)C3 (stereo not drawn) [Cpd 23, 12,13-(2-hydroxymethyl-propan-1,3-yl)-6,7,12,13-tetrahydro-5-oxo-5H-indolo[2,3-a]pyrrolo[3,4-c]carbazole]
3 | 26 nM | O=C1NCc2c1c1c3ccccc3n3c1c1c2c2ccccc2n1CC(O)(COC(=O)N1CCCNCC1)C3 (stereo not drawn) [Cpd 146, 12,13-{2-hydroxy-2-[(hexahydro-1H-1,4-diazepin-1-yl)carbonyloxymethyl]-propan-1,3-yl}-6,7,12,13-tetrahydro-5-oxo-5H-indolo[2,3-a]pyrrolo[3,4-c]carbazole]
4 | 23 nM | CN1CCN(CCCNC(=O)OCC2(O)Cn3c4ccccc4c4c5c(c6c7ccccc7n(c6c43)C2)C(=O)NC5)CC1 (stereo not drawn) [Cpd 151, 12,13-(2-hydroxy-2-{[3-(4-methyl-piperazin-1-yl)prop-1-yl]carbamoyloxymethyl}-propan-1,3-yl)-6,7,12,13-tetrahydro-5-oxo-5H-indolo[2,3-a]pyrrolo[3,4-c]carbazole]
5 | 886 nM | O=C1NCc2c1c1c3ccccc3n3c1c1c2c2ccccc2n1CC(O)(COC(=O)N1CCN(c2ccncc2)CC1)C3 (stereo not drawn) [Cpd 144, 12,13-{2-hydroxy-2-[(4-pyridin-4-yl-piperazin-1-yl)carbonyloxymethyl]-propan-1,3-yl}-6,7,12,13-tetrahydro-5-oxo-5H-indolo[2,3-a]pyrrolo[3,4-c]carbazole]
6 | 169 nM | CN1CCC(Nc2ccc3c(c2)c2c4c(c5c6ccccc6n6c5c2n3CC(O)C(O)C6)CNC4=O)CC1 (stereo not drawn) [Cpd 204, 3-[(1-methyl-piperidin-4-yl)amino]-12,13-(2,3-dihydroxy-butan-1,4-yl)-6,7,12,13-tetrahydro-5-oxo-5H-indolo[2,3-a]pyrrolo[3,4-c]carbazole]
7 | 107 nM | CC(C)OCc1ccc2c(c1)c1c3c(c4c5ccccc5n5c4c1n2CC(CO)C5)CNC3=O (stereo not drawn) [Cpd 211, 9-(isopropoxymethyl)-12,13-(2-hydroxymethyl-propan-1,3-yl)-6,7,12,13-tetrahydro-5-oxo-5H-indolo[2,3-a]pyrrolo[3,4-c]carbazole]
8 | 706 nM | CC(C)NC(=O)OC1CCn2c3ccccc3c3c4c(c5c6ccccc6n(c5c32)CC1)C(=O)NC4 (stereo not drawn) [Cpd 180, 12,13-[3-(isopropyl-carbamoyloxy)-pentan-1,5-yl]-6,7,12,13-tetrahydro-5-oxo-5H-indolo[2,3-a]pyrrolo[3,4-c]carbazole]
9 | 1060 nM | COCCNC(=O)OC1CCn2c3ccccc3c3c4c(c5c6ccccc6n(c5c32)CC1)C(=O)NC4 (stereo not drawn) [Cpd 179, 12,13-{3-[(2-methoxy-ethyl)carbamoyloxy]-pentan-1,5-yl}-6,7,12,13-tetrahydro-5-oxo-5H-indolo[2,3-a]pyrrolo[3,4-c]carbazole]
10 | 122 nM | O=C1NC(=O)c2c1c1c3ccccc3n3c1c1c2c2ccccc2n1CC(OC(=O)N1CCN(Cc2ccccc2)CC1)CC3 (stereo not drawn) [Cpd 44, 12,13-{2-[(4-benzyl-piperazin-1-yl)carbonyloxy]-butan-1,4-yl}-12,13-dihydro-5,7-dioxo-6H-indolo[2,3-a]pyrrolo[3,4-c]carbazole]
11 | 66 nM | O=C1NC(=O)c2c1c1c3cc(-c4cncnc4)ccc3n3c1c1c2c2ccccc2n1CC(O)CC3 (stereo not drawn) [Cpd 34, 3-pyrimidin-5-yl-12,13-(2-hydroxy-butan-1,4-yl)-12,13-dihydro-5,7-dioxo-6H-indolo[2,3-a]pyrrolo[3,4-c]carbazole]

Row | SMILES | IC50
12 | CC(C)(C)OC(=O)NC1CCN(C(=O)OCC2(O)Cn3c4ccccc4c4c5c(c6c7ccccc7n(c6c43)C2)C(=O)NC5)CC1 (stereo not drawn) [Cpd 175, 12,13-{2-hydroxy-2-[(4-t-butoxyamido-piperidin-1-yl)carbonyloxymethyl]-propan-1,3-yl}-6,7,12,13-tetrahydro-5-oxo-5H-indolo[2,3-a]pyrrolo[3,4-c]carbazole] | 244 nM
